The source of these data is patent US20210364534A1, “METHODS OF USING HISTATIN FOR DIAGNOSING AND TREATING A DRY EYE DISEASE OR OTHER OCULAR DISEASES” (THE BOARD OF TRUSTEES OF THE UNIVERSITY OF ILLINOIS, priority 2018, published 2021).

Assay [1] relates to Human corneal epithelial (HCE) cells. In words: WST-1 cell viability of HCE cells exposed to benzalkonium chloride (BAK). The class given is cell-based. Conditions: BAK-treated HCE cells co-treated with histatin; FIG. 5. On the procedure: Experiments were performed in triplicate. *<0.05, **<0.01. Bar represents SEM.
To determine whether histatins could improve symptoms of dry eye disease, cell viability assays were carried out in the presence of the toxic preservative benzalkonium chloride (BAK)(Yang, et al. (2017) Int. J. Mol. Sci. 18(3):509). Human corneal epithelial (HCE) cells were cultivated under standard conditions and viability was assessed using WST-1 reagent, a tetrazolium salt that is reduced to a red formazan dye by the mitochondrial dehydrogenases of metabolically active cells (Bartok, et al. (2015) EXCLI J. 14:123-132).
On the technique in general: Tetrazolium assays rely on reduction of a dye to a coloured formazan, in cell work by metabolically active cells.

The subject of another assay is IL6. In words: IL6 expression induced by BAK application to HCE cells. The class given is cell-based, Human. To be noted: BAK-treated HCE cells, histatin co-treatment.
For a further assay, the system named is IL8. In words: IL8 expression induced by BAK application to HCE cells. The class given is cell-based, Human. Conditions: BAK-treated HCE cells, histatin co-treatment.
The test system of another assay is TNFα. In words: TNFα expression induced by BAK application to HCE cells. To be noted: BAK-treated HCE cells, histatin co-treatment. The assay is classed as cell-based, Human.
Assay [2] concerns dry eye disease murine model (BAK exposure). The experiment in a line: Murine model of dry eye disease (benzalkonium chloride exposure), NEI score. The assay is classed as in vivo. Conditions: twice a day topical 80 μM, by 7 days, versus vehicle control (BSS); FIG. 6. On the procedure:
Results are based upon the National Eye Institute/Industry (NEI) grading scale (Lemp (1995) CLAO J. 21:221-232) in animals treated with H5 or Balanced Salt Solution (BSS). All experiments were performed in triplicate. *<0.05, **<0.01. Bar represents SEM.

The subject of a further assay is human corneal epithelia. Conditions: Shah, et al. (2017) PLoS One 12(5):e0178030; cited from earlier work.

Marks after values point to notes of the source that are not given here. Non-standard residues stand in square brackets, D forms with d. No end group written: not given here. pS = N[C@@H](COP(=O)(O)O)C(=O)O

Regarding “Histatin 5 (DSHAKRHHGYKRKFHEKHHSHRGY) [Histatin H5]”, the “HCE viability (WST-1)” value in assay [1] is given as “improved”. Further, in the assay with IL6, the “Decrease in cytokine expression IL6 mRNA” value was found to be 45%* and the “Decrease in cytokine expression IL6 protein” value is 45%. Moreover, the “Decrease in cytokine expression IL8 mRNA” value with IL8 was 46%*. Moreover, in the assay on TNFα, the “Decrease in cytokine expression TNFα protein” value is on record as 32%**. Further, the “standardized dry eye disease score (NEI score)” value in assay [2] is listed as “reduced standardized dry eye disease score (NEI score) in a statistically significant manner”.
As for “Histatin-1 (D[pS]HEKRHHGYRRKFHEKHHSHREFPFYGDYGSNYLYDN) [Histatin H1]”, in assay [1], the “HCE viability (WST-1)” value is reported as “improved”. In the assay on IL6, the “Decrease in cytokine expression IL6 mRNA” value was determined as 82%** and the “Decrease in cytokine expression IL6 protein” value came out at 48%*. The “Decrease in cytokine expression IL8 mRNA” value in the assay with IL8 is 86%**. Further, the “Decrease in cytokine expression TNFα protein” value with TNFα is recorded as 12%. Further, in the assay on human corneal epithelia, the “migration of human corneal epithelia” value is given as “promote migration”.
